# In a melting point compilation (Tetko et al.; mined from patent text by program, amines drawn as free bases though some values may be those of a salt):
row,melting point [°C],SMILES
1,158 to 160,Cc1ccc(S(=O)(=O)N2Cc3csc(C)c3C2)cc1
2,207 to 208,Cc1c(NC(=O)c2ccc(OCC3CC3)cc2)ccc2[nH]c(CNC3CCCC3)cc12
3,105 to 108,Nc1ccc(CC(=O)N2CCCC2)cc1N
4,170,CCCCCCCCCCCCCCCCCCOc1ccc(NC(=O)c2ccc(O)cc2)cc1
5,74,CCOC(=O)c1ccc(N(N)C(=O)OC(C)(C)C)cc1
6,75.5 to 77,CC(Cl)(Cl)C(Cl)(Cl)c1cccc([N+](=O)[O-])c1
7,58.6,CC(NC(=O)OCc1ccccc1)C(=O)N1C(C(=O)O)CC2CCCCC21 (configuration not stated)
8,120 to 121,O=C(O)c1ccc(OC2=C3N=C4CCCCC4=C3C(CCCCc3ccccc3)C=C2)o1 (configuration not stated)
9,141 to 143,CCCCN1C(=O)CC(=O)N(C)c2ccccc21
10,268 to 269,CC1(C)CCC23CCC4(C)C(CCC5C6(C)CCC(O)C(C)(C)C6CCC54C)C2C1OC3 (configuration not stated)
11,47 to 49,O=C(NCCCO)OCc1ccccc1
12,254,Cc1cc(-c2ccc(C(F)(F)F)nc2)nc(-c2cccc(-c3cccc(S(N)(=O)=O)c3)n2)n1
13,198 to 200,O=C1CCC(N2C(=O)c3cccc(CNC(=O)c4cc5ccccc5cn4)c3C2=O)C(=O)N1 (configuration not stated)
14,184 to 185,COc1cc(Cl)cc(OC(=O)c2cc3cc(CCl)ccc3oc2=O)c1
15,148 to 149,S=C(Nc1ccccc1)Nc1ncccc1OCc1c(Cl)cccc1Cl
16,188 to 190,O=C(O)C=C1CCC(n2nc(-c3c(-c4ccccc4)nn4ccccc34)ccc2=O)CC1 (configuration not stated)
17,206,c1ccc(-c2ccc(-c3cnc(-c4ccccc4)[nH]3)cn2)cc1
18,260 to 261,O=C(Cn1c(-c2ccc(Cl)cc2)nc2cccnc21)NC1CCCC1
19,134 to 137,CCCc1nc2c(N)nc3cc(Br)ccc3c2n1CC1CCN(C(=O)OC(C)(C)C)CC1
20,118,CNc1cc(Oc2cc(C(F)(F)F)nn2C)nc(Oc2cc(C(F)(F)F)nn2C)c1
21,120 to 123,CC(C)Nc1ncc2c(n1)N(C)C(=O)C2
22,114 to 116,C[C@@](O)(C(=O)Nc1ccc(S(=O)(=O)c2ccccc2S(C)(=O)=O)cc1Cl)C(F)(F)F
23,113 to 115,COc1ccnc(N2CCN(Cc3ccc(C(C)NC(C)=O)cc3)CC2)n1 (configuration not stated)

row,melting point [°C],SMILES
1,180 to 183,Cc1cc(Cl)c(C(N)=O)cc1[N+](=O)[O-]
2,110 to 111,CC(C)C[C@H](O)[C@H](O)[C@@H](N)CC1CCCCC1
3,329 to 331,CC1(C(=O)O)CCC2(C)CCC3(C)C(=CCC4C5(C)CCC(O)C(C)(C)C5CCC43C)C2C1 (configuration not stated)
4,200 to 201,Cc1ccccc1-c1cc(N2CCS(=O)(=O)CC2)ncc1N(C)C(=O)C(C)(C)c1cc(C(F)(F)F)cc(C(F)(F)F)c1
5,55 to 60,Cc1cc(C(=O)CCc2cc(-c3ccc(C(F)(F)F)cc3)nn2CC2CC2)ccc1OC(C)(C)C(=O)O
6,155 to 157,O=C(O)c1cnn(-c2c(Cl)cc(C(F)(F)F)cc2Cl)n1
7,225 to 226,COc1ccccc1-n1c(-c2sc(Nc3ccc(Cl)cc3)nc2C)nc2ccccc2c1=O
8,109 to 111,CCS(=O)(=O)N[C@H](C(=O)NCCc1cc(Br)c(OCC#Cc2ccc(Cl)cc2)c(OC)c1)C(C)C
9,60 to 62,CCCc1c(OCCCOc2ccc3c(c2CCC)OC(CCC(=O)O)C=C3)ccc(C(C)=O)c1O (configuration not stated)
10,137 to 138,CCCOc1ccccc1-c1nc(O)cc(C(=O)OCC)n1
11,90 to 93,CCc1noc(NS(=O)(=O)c2ccccc2)c1Br
12,178 to 180,COC(=O)c1cccc(NC(=S)Nc2cc(C(=O)Nc3ccccc3)ccc2OC)c1
13,126 to 127,CSC[C@H](NC(C)=O)C(=O)NO
14,261 to 262,CCCOc1ccccc1-c1nc2nc(N)ncc2c(=O)[nH]1
15,> 300,COc1cc(OC)c2c(=O)[nH]c(-c3ccc(OC)c(-c4ccc(C(=O)N(C)C)cc4Cl)c3)nc2c1
16,191 to 193,Cc1ccccc1OCC(O)CN1CCC2(CC1)CSC1=C(O2)c2ccccc2C(=O)C1=O (configuration not stated)
17,204 to 206,O=c1[nH]c2cscc2c(=O)n1CCN1CCC(=C(c2ccc(F)cc2)c2ccc(F)cc2)CC1
18,57 to 59,CN(C)C(=O)C(C)(C)c1ccccc1
19,130 to 131,CCOc1ccc2c(C)c(CCO)c(=O)oc2c1OCC
20,292 to 298,O=C1C=C(c2c[nH]c3ccc(O)cc23)C(=O)N1
21,93,CC1(C)C=C(C(O)CN)c2ccccc21 (configuration not stated)
22,101 to 102,COCOc1cc(CCCOc2ncccc2CC(=O)O)n(Cc2ccc(Cl)cc2Cl)n1
23,162 to 163,O=c1oc2ccc(Cl)cc2c(O)c1CCCOc1ccccc1

row,melting point [°C],SMILES
1,239,NS(=O)(=O)c1cccc(-c2cn(-c3nc(-c4ccc(Cl)c(Cl)c4)cc(C(F)(F)F)n3)cn2)c1
2,108 to 110,CCn1cc(C(=O)C(Cl)Cl)c(=O)c(-c2cccc(C(F)(F)F)c2)c1
3,159 to 160,Cc1nc(N)nc(OCc2ccccc2)c1[N+](=O)[O-]
4,95 to 98,N#CCCNC(=O)c1cccc(-c2cccc3cc(Cc4cccc(C(F)(F)F)c4)sc23)c1
5,116 to 118,Cc1cc(C)c2c(c1)OC(C)(COc1ccc([N+](=O)[O-])cc1)C=C2 (configuration not stated)
6,105 to 107,C#CCN1C(=O)COc2cc(F)c([N+](=O)[O-])cc21
7,158 to 159,CCOC(=O)N(c1ccc(C#N)cc1)c1c(NC(C)C(C)(C)C)c(=O)c1=O (configuration not stated)
8,50 to 53,COC(=O)Cc1ccc(OCCNC(=O)C2Cc3ccccc3N2S(=O)(=O)c2ccc(-c3cc(C)ccc3Cl)cc2)cc1 (configuration not stated)
9,83 to 84,CCOC(=O)CCCN(C(=O)c1ccc(F)cc1)c1ccccc1-c1ccccc1
10,134 to 136,COc1ccc(CC#N)c(CCNC(C)=O)c1OC
11,106,COc1ccc(-n2cncc2-c2ccccc2)cc1
12,234 to 236,CC(c1oc2ccccc2c(=O)c1-c1cccc(F)c1)n1nc(-c2ccco2)c2c(N)ncnc21 (configuration not stated)
13,275 to 280,CC(=O)Nc1ccc2c(c1)C(=O)N(c1ccc3c(ccn3C)c1)C2
14,113 to 114,COc1ccc2c(CO)c(F)ccc2c1C(F)(F)F
15,196 to 197,CC1(C)Oc2ccc(C#N)cc2[C@@H](NC(=O)CCl)[C@@H]1O (relative stereo)
16,195 to 197,CC(C)Oc1cc(-n2c(=O)cc(C(F)(F)F)[nH]c2=O)c(F)cc1Cl
17,177 to 178,CCN1CCCC(NC(=O)c2ccc(Nc3ccnc4c(C(F)(F)F)cccc34)cc2)C1 (configuration not stated)
18,156 to 158,O=C(Nc1ccc(N2CCOCC2)cc1)N(C[C@H]1CC[C@H](CN(C(=O)Nc2ccc(N3CCOCC3)cc2)C2CCCCC2)CC1)C1CCCCC1
19,128 to 129,CC(C)(C#N)ON1C(C)(C)CC(OC(=O)c2ccccc2)CC1(C)C
20,> 300,CCOC(=O)c1cc(=O)n(Cc2ccc(S(=O)(=O)O)cc2S(=O)(=O)O)[nH]1
21,151 to 156,CN(C)c1cccc(NC(=O)N(C[C@H]2CC[C@H](CN(C(=O)Nc3cccc(N(C)C)c3)C3CCCCCC3)CC2)C2CCCCCC2)c1
22,106 to 108,COc1ccc(CN(CCN(C)CCCCNC(=NCCCOc2cccc(CN3CCCCC3)c2)NC#N)c2ccccn2)cc1
23,112 to 114,O=C(c1ccccc1)c1ccccc1NC(=O)C(Cl)Cl

row,melting point [°C],SMILES
1,197,O=C(CN1CCOCC1)N1CCN(c2ccc(O)cc2)CC1
2,105,CCCCCCCCCCCCCCCCCCSCCCCCC(N)=O
3,120,CCCC(NS(=O)(=O)c1ccc(Cl)cc1)C(=O)NN (configuration not stated)
4,163 to 165,CCOC(=O)c1nn(-c2cccc(Br)c2)c(=O)c2c(N)scc12
5,193 to 195,Nc1n[nH]c2ccc(OCc3ccccc3)cc12
6,145 to 146,CCOC(=O)c1nc(S)n(-c2ccccc2)c1C(=O)OCC
7,110 to 112,COC(=O)C(C)(C)OCc1cc2cc(Cl)ccc2n1S(=O)(=O)c1cc(C)cc(C)c1
8,201 to 203,CCn1ncc2c(NCC3(O)CCCCC3)c3cc(OC)ccc3nc21
9,81 to 82,CCOP(=O)(OCC)C(O)c1cccc(F)c1 (configuration not stated)
10,113 to 115,COC(=O)Cc1c(C)ncnc1Oc1cccc(-c2ccccc2)c1
11,132,C=C(Cc1c(Cl)cccc1Cl)C(=O)O
12,110 to 114,CCOC(=O)C(Cc1ccc(OCCBr)cc1)OCC (configuration not stated)
13,134 to 135,CC(C)n1nc(-c2sc(C(=O)NC3CC3)nc2-c2ccccc2F)ccc1=O
14,148 to 150,CN1C(=O)C2CC2(c2ccc([N+](=O)[O-])cc2)C1=O (configuration not stated)
15,132 to 133,Clc1ccc2nc(CN3CCC(c4ccccc4)CC3)cn2c1
16,151 to 153,CC(C)(C)OC(=O)NC1COCCCC=CC2CC2(C(=O)NS(=O)(=O)C2CC2)NC(=O)C2CC(OC(=O)Nc3ccccc3Oc3ccccc3)CN2C1=O (configuration not stated)
17,279 to 281,Cn1c(COc2ccc(C=C3SC(=O)NC3=O)cc2)nc2cccnc21
18,173 to 175,CCC(=O)NC1(c2ccc(C(C)C)cc2OC(=O)CC)C(=O)c2ccccc2C1=O
19,118 to 125,CNC(=N)N(C)Cc1ccc(C)cc1
20,168 to 169,Cc1cnc2ccnn2c1-c1cccc(C(F)(F)F)c1
21,150 to 151,CCc1cccc(-c2nc(=O)c3ccccc3s2)n1
22,150,O=C1Oc2ccccc2C1(Cc1ccccc1)Cn1cncn1 (configuration not stated)
23,283 to 286,O=C(NCc1ccc(Cl)cc1)c1cnc2c(I)cc(CO)cc2c1O

row,SMILES,melting point [°C]
1,CN1C(=O)C(NS(=O)(=O)CC23CCC(CC2=O)C3(C)C)N=C(c2ccccc2)c2ccccc21 (configuration not stated),204 to 206
2,FC(F)(F)c1nnnn1-c1ccc(C2=NOC(c3cc(Cl)cc(Cl)c3)(C(F)(F)F)C2)cc1 (configuration not stated),147 to 151
3,O=C(Oc1nc(Cl)c(Cl)cc1Cl)C(Cl)(Cl)Cl,58 to 60
4,c1cc2c3c(c[nH]c3c1)CC1NCCCC21 (configuration not stated),170 to 173
5,CC(C)CC1N=C(c2ccccc2)c2cc(Cl)ccc2NC1=O (configuration not stated),213
